Measured values from patent publication US11179400B2, “Heterocyclic compounds as RSV inhibitors” (priority 2019, dated 2021).

test system: Human RSV-A (“Long” strain); test: RSV in vitro cytoprotection assay in HEp-2 cells (ATPlite read-out); type: cell-based; details: human respiratory syncytial virus, 96 h; HEp-2 cells, genotype A “Long” strain RSV, 4-day incubation, ATPlite; read-out: Human RSV-A (“Long” strain) EC50
Description: RSV is a single stranded negative sense RNA virus that causes respiratory tract infections which can be dangerous to infants, the elderly, and immunosuppressed individuals. Currently there is no vaccine, and therapeutic options are both costly and of limited effectiveness. These approved treatments are Ribavirin, and Palivizumab/Synagis (a monoclonal antibody). RSV has two genotypes, A and B, which differ primarily in the structure of the virus' surface “G” attachment protein. Our current primary screen focusses on RSV-A and uses an in vitro cytoprotection assay where compounds are added in 2-fold dilutions to cells which are then subjected to fully replicative viral particles. Cell viability is measured several days later along with separate measurements of compound cytotoxicity. This report focuses on the results of our most recent screening of compounds.
HEp-2 cells, (originally derived from tumors grown in irradiated-cortisonised weanling rats that had been injected with epidermoid carcinoma tissue from a person's larynx, but later found to be indistinguishable from HeLa cells by PCR DNA analysis), were used for the culturing of genotype A, “Long” strain RSV. Flasks were inoculated with RSV and viral stocks were collected once cytopathic effect (CPE) was greater than 90%. Viral stocks in 25% sucrose media were snap frozen using liquid nitrogen to increase viral stability. Viral stock titers were quantified by tissue culture infectious dose 50% (TCID50) using 8,000 cells per well and 3-fold viral dilutions across a 96-well plate, cultured for 4 days.
Following extensive parameter testing, the final assay is run as follows: HEp-2 cells are seeded into the inner 60 wells of a 96-well plate at 8,000 cells per well in a volume of 50 μL using Growth Media (DMEM without phenol red, 1% L-Glut, 1% Penn/Strep, 1% nonessential amino acids, 10% FBS). 2-Fold serial dilutions of control and test compounds are added to the wells in duplicate in a total volume of 25 μL. Viral stock is then added to the wells in a volume of 25 μL, bringing the total volume of each well to 100 μL. Each 96-well plate has a control column of 6 wells with cells and virus but no compound (negative control, max CPE), a column with cells but no compound or virus (positive control, minimum CPE), and a column with no cells or virus or compound (background plate/reagent control). The control wells with cells but no virus are given an additional 25 μL of growth media containing an equal quantity of sucrose as those wells receiving the viral stock in order to keep consistent in media and volume conditions. The outer wells of the plate are filled with 125 μL of growth media to act as a thermal and evaporative moat around the test wells. Following a 4-day incubation period, the plates are read using ATPlite (50 uL added per well), which quantifies the amount of ATP (a measure of cell health) present in each well. Assay plates are read using the Envision luminometer. In parallel, cytotoxicity is examined on an additional 96-well plate treated in an identical manner, but substituting the 25 μL of viral stock for 25 μL of growth media. […] EC50 ranges are as follows: A<0.01 μM; B 0.01-0.05 μM; C>0.05 μM.

EC50	Compound
< 10 nM	Cc1cnc(N2CC3(CCOCC3)C2)c(C(=O)Nc2ccc(C(=O)N3CCC(c4ccc(C(=O)NC5CC5)s4)=Cc4ccccc43)cc2)c1 [Example 1]
< 10 nM	Cc1cnc(N2CC3(CCOCC3)C2)c(C(=O)Nc2ccc(C(=O)N3CCC(c4ccc(C(=O)Nc5c(F)cccc5F)s4)=Cc4ccccc43)cc2)c1 [Example 2]
< 10 nM	Cc1cnc(N2CC3(CCOCC3)C2)c(C(=O)Nc2ccc(C(=O)N3CCC(c4ccc(C(=O)NC5CCC5)s4)=Cc4ccccc43)cc2)c1 [Example 3]
< 10 nM	Cc1cnc(N2CC3(CCOCC3)C2)c(C(=O)Nc2ccc(C(=O)N3CCC(c4ccc(C(=O)NC5CC(F)(F)C5)s4)=Cc4ccccc43)cc2)c1 [Example 4]
10 to 50 nM	Cc1cnc(N2CC3(CCOCC3)C2)c(C(=O)Nc2ccc(C(=O)N3CCC(c4ccc(C(=O)NC56CC(C5)C6)s4)=Cc4ccccc43)cc2)c1 [Example 5]
10 to 50 nM	Cc1cnc(N2CC3(CCOCC3)C2)c(C(=O)Nc2ccc(C(=O)N3CCC(c4ccc(C(=O)Nc5c(C)cccc5F)s4)=Cc4ccccc43)cc2)c1 [Example 6]
10 to 50 nM	Cc1ccc(C(=O)Nc2ccc(C(=O)N3CCC(c4ccc(C(=O)Nc5c(F)cccc5F)s4)=Cc4ccccc43)cc2)c(N2CC3(CCOCC3)C2)n1 [Example 7]
10 to 50 nM	Cc1ccc(C(=O)Nc2ccc(C(=O)N3CCC(c4ccc(C(=O)Nc5c(C)cccc5F)s4)=Cc4ccccc43)cc2)c(N2CC3(CCOCC3)C2)n1 [Example 8]
10 to 50 nM	Cc1ccc(C(=O)Nc2ccc(C(=O)N3CCC(c4ccc(C(=O)NC5CC(F)(F)C5)s4)=Cc4ccccc43)cc2)c(N2CC3(CCOCC3)C2)n1 [Example 9]
< 10 nM	Cc1ccc(C(=O)Nc2ccc(C(=O)N3CCC(c4ccc(C(=O)NC5CCC5)s4)=Cc4ccccc43)cc2)c(N2CC3(CCOCC3)C2)n1 [Example 10]
10 to 50 nM	Cc1ccc(C(=O)Nc2ccc(C(=O)N3CCC(c4ccc(C(=O)NC56CC(C5)C6)s4)=Cc4ccccc43)cc2)c(N2CC3(CCOCC3)C2)n1 [Example 11]
10 to 50 nM	Cc1cnc(N2CC3(CCOCC3)C2)c(C(=O)Nc2ccc(C(=O)N3CCC(c4cc(C(=O)NC5CC5)cs4)=Cc4ccccc43)cc2)c1 [Example 12]
> 50 nM	CC1=C(c2ccc(C(=O)NC3CC3)s2)CCN(C(=O)c2ccc(NC(=O)c3cc(C)cnc3N3CC4(CCOCC4)C3)cc2)c2ccccc21 [Example 13]
> 50 nM	CC1=C(c2ccc(C(=O)Nc3c(C)cccc3F)s2)CCN(C(=O)c2ccc(NC(=O)c3cc(C)cnc3N3CC4(CCOCC4)C3)cc2)c2ccccc21 [Example 14]
< 10 nM	Cc1cnc(N2CC3(CCOCC3)C2)c(C(=O)Nc2ccc(C(=O)N3CCC(c4ccc(C(=O)NC5CC5)cc4)=Cc4ccccc43)cc2)c1 [Example 15]
< 10 nM	Cc1cnc(N2CC3(CCOCC3)C2)c(C(=O)Nc2ccc(C(=O)N3CCC(c4ccc(C(=O)Nc5c(C)cccc5F)cc4)=Cc4ccccc43)cc2)c1 [Example 16]

same assay, conditions: human respiratory syncytial virus, HEp-2

Compound	EC50
O=C(Nc1ccccc1F)N[C@H]1N=C(c2ccccc2)c2ccccc2NC1=O [RSV-604, reference compound]	~2400 nM
